Experimental data reported in US12594276B2, “Inhibitors of human immunodeficiency virus replication” (ViiV Healthcare UK (No.5) Limited, priority 2024, dated 2026).

What was measured:
[1] = test system: recombinant NL4-3 virus (nef section replaced with Renilla luciferase gene) in MT-2 cells; assay: HIV cell culture assay (antiviral activity, luciferase readout); type: cell-based; details: Renilla, NL43, MT-2 cells infected for 4-5 days with recombinant NL4-3 Renilla luciferase virus
Procedure, shortened: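 MT-2 cells were infected for 4-5 days with reporter virus made by transfecting the recombinant NL4-3 proviral clone into 293T cells, in the presence of serial compound dilutions. Luciferase activity was read with a live-cell substrate. EC50 came from the exponential median effect equation, (Fa)=1/[1+(ED50/drug conc.)m].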

[2] = Compound cytotoxicity, XTT-based colorimetric assay; type: cell-based; details: human; uninfected MT2 cells, day 4, XTT; read-out: CC50
Procedure, shortened: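 Uninfected MT2 cells were treated with compound under the same protocol as the antiviral assay. Viability was read on day 4 with an XTT colorimetric assay, from which CC50 values were derived.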

| Compound | EC50 [1] [nM] | CC50 at 4 days [2] [nM] |
| --- | --- | --- |
| Cc1cc(C2(F)CCC(F)(F)CC2)nc2nc([C@H](Cc3cc(F)cc(F)c3)NC(=O)Cn3nc(C4CC4)c4c3C[C@@H]3C[C@H]43)n(-c3ccc(Cl)c4c(NS(C)(=O)=O)nn([C@@H](C)CN5C[C@H](F)C[C@H](F)C5)c34)c(=O)c12 (relative stereo) [Example 754, N-[(1S)-1-[(3P)-3-{4-chloro-1-[(2S)-1-[(3R,5S)-3,5-difluoropiperidin-1-yl]propan-2-yl]-3-methanesulfonamido-1H-indazol-7-yl}-5-methyl-4-oxo-7-(1,4,4-trifluorocyclohexyl)-3H,4H-pyrido[2,3-d]pyrimidin-2-yl]-2-(3,5-difluorophenyl)ethyl]-2-[(2R*,4R*)-9-cyclopropyl-7,8-diazatricyclo[4.3.0.0^2,^4]nona-1(6),8-dien-7-yl]acetamide] | 0.075 | > 20 |
| CS(=O)(=O)Nc1nn(CCN2CCOC(C(F)F)C2)c2c(-n3c([C@H](Cc4cc(F)cc(F)c4)NC(=O)Cn4nc(C(F)F)c5c4C(F)(F)[C@@H]4C[C@H]54)nc4nc(C5CCC(F)(F)CC5)ccc4c3=O)ccc(Cl)c12 (stereo partly drawn) [Example 187, N-[(1S)-1-[(3P)-3-(4-chloro-1-{2-[2-(difluoromethyl)morpholin-4-yl]ethyl}-3-methanesulfonamido-1H-indazol-7-yl)-7-(4,4-difluorocyclohexyl)-4-oxo-3H,4H-pyrido[2,3-d]pyrimidin-2-yl]-2-(3,5-difluorophenyl)ethyl]-2-[(2S,4R)-9-(difluoromethyl)-5,5-difluoro-7,8-diazatricyclo[4.3.0.0^2,4]nona-1(6),8-dien-7-yl]acetamide] | 0.032 | > 50 |
| CC1(C)CN(CCn2nc(NS(C)(=O)=O)c3c(Cl)ccc(-n4c([C@H](Cc5cc(F)cc(F)c5)NC(=O)Cn5nc(C(F)F)c6c5C(F)(F)[C@@H]5C[C@H]65)nc5nc(C6CCC(F)(F)CC6)ccc5c4=O)c32)CC(C(F)(F)F)O1 (stereo partly drawn) [Example 189] | 0.035 | > 50 |
| CS(=O)(=O)Nc1nn(CCN2CCC(F)(C(F)(F)F)C2)c2c(-n3c([C@H](Cc4cc(F)cc(F)c4)NC(=O)Cn4nc(C(F)F)c5c4C(F)(F)[C@@H]4C[C@H]54)nc4nc(C5CCC(F)(F)CC5)ccc4c3=O)ccc(Cl)c12 (stereo partly drawn) [Example 191, N-[(1S)-1-[(3P)-3-(4-chloro-1-{2-[3-fluoro-3-(trifluoromethyl)pyrrolidin-1-yl]ethyl}-3-methanesulfonamido-1H-indazol-7-yl)-7-(4,4-difluorocyclohexyl)-4-oxo-3H,4H-pyrido[2,3-d]pyrimidin-2-yl]-2-(3,5-difluorophenyl)ethyl]-2-[(2S,4R)-9-(difluoromethyl)-5,5-difluoro-7,8-diazatricyclo[4.3.0.0^2,^4]nona-1(6),8-dien-7-yl]acetamide] | 0.024 | > 50 |
| CS(=O)(=O)Nc1nn(CCN2CCC(C(F)(F)F)C2)c2c(-n3c([C@H](Cc4cc(F)cc(F)c4)NC(=O)Cn4nc(C(F)F)c5c4C(F)(F)[C@@H]4C[C@H]54)nc4nc(C5CCC(F)(F)CC5)ccc4c3=O)ccc(Cl)c12 (stereo partly drawn) [Example 199, N-[(1S)-1-[(3P)-3-(4-chloro-3-methanesulfonamido-1-{2-[3-(trifluoromethyl)pyrrolidin-1-yl]ethyl}-1H-indazol-7-yl)-7-(4,4-difluorocyclohexyl)-4-oxo-3H,4H-pyrido[2,3-d]pyrimidin-2-yl]-2-(3,5-difluorophenyl)ethyl]-2-[(2S,4R)-9-(difluoromethyl)-5,5-difluoro-7,8-diazatricyclo[4.3.0.0^2,^4]nona-1(6),8-dien-7-yl]acetamide] | 0.023 | > 50 |
| CC1(F)CCN(CCn2nc(NS(C)(=O)=O)c3c(Cl)ccc(-n4c([C@H](Cc5cc(F)cc(F)c5)NC(=O)Cn5nc(C(F)F)c6c5C(F)(F)[C@@H]5C[C@H]65)nc5nc(C6CCC(F)(F)CC6)ccc5c4=O)c32)C1 (stereo partly drawn) [Example 211, N-[(1S)-1-[(3P)-3-{4-chloro-1-[2-(3-fluoro-3-methylpyrrolidin-1-yl)ethyl]-3-methanesulfonamido-1H-indazol-7-yl}-7-(4,4-difluorocyclohexyl)-4-oxo-3H,4H-pyrido[2,3-d]pyrimidin-2-yl]-2-(3,5-difluorophenyl)ethyl]-2-[(2S,4R)-9-(difluoromethyl)-5,5-difluoro-7,8-diazatricyclo[4.3.0.0^2,^4]nona-1(6),8-dien-7-yl]acetamide] | 0.012 | > 50 |
| CS(=O)(=O)Nc1nn(CCN2CC3C(C2)C(F)(F)C3(F)F)c2c(-n3c([C@H](Cc4cc(F)cc(F)c4)NC(=O)Cn4nc(C(F)F)c5c4C(F)(F)[C@@H]4C[C@H]54)nc4nc(C5CCC(F)(F)CC5)ccc4c3=O)ccc(Cl)c12 (stereo partly drawn) [Example 214, N-[(1S)-1-[(3P)-3-[4-chloro-3-methanesulfonamido-1-(2-{6,6,7,7-tetrafluoro-3-azabicyclo[3.2.0]heptan-3-yl}ethyl)-1H-indazol-7-yl]-7-(4,4-difluorocyclohexyl)-4-oxo-3H,4H-pyrido[2,3-d]pyrimidin-2-yl]-2-(3,5-difluorophenyl)ethyl]-2-[(2S,4R)-9-(difluoromethyl)-5,5-difluoro-7,8-diazatricyclo[4.3.0.0^2,^4]nona-1(6),8-dien-7-yl]acetamide] | 0.015 | > 50 |
| CS(=O)(=O)Nc1nn(CCN2CCOCC2)c2c(-n3c([C@H](Cc4cc(F)cc(F)c4)NC(=O)Cn4nc(C5CC5)c5c4C[C@@H]4C[C@H]54)nc4nc(C5CCC(F)(F)CC5)cc(C(F)F)c4c3=O)ccc(Cl)c12 [Example 227, N-[(1S)-1-[(3P)-3-{4-chloro-3-methanesulfonamido-1-[2-(morpholin-4-yl)ethyl]-1H-indazol-7-yl}-7-(4,4-difluorocyclohexyl)-5-(difluoromethyl)-4-oxo-3H,4H-pyrido[2,3-d]pyrimidin-2-yl]-2-(3,5-difluorophenyl)ethyl]-2-[(2S,4S)-9-cyclopropyl-7,8-diazatricyclo[4.3.0.0^2,^4]nona-1(6),8-dien-7-yl]acetamide] | 0.016 | > 50 |
| Cc1cc(C2CCC(F)(F)CC2)nc2nc([C@H](Cc3cc(F)cc(F)c3)NC(=O)Cn3nc(C4CC4)c4c3C[C@@H]3C[C@H]43)n(-c3ccc(Cl)c4c(NS(C)(=O)=O)nn(CCN5CCC(C)(F)C5)c34)c(=O)c12 (stereo partly drawn) [Example 280, N-[(1S)-1-[(3P)-3-{4-chloro-1-[2-(3-fluoro-3-methylpyrrolidin-1-yl)ethyl]-3-methanesulfonamido-1H-indazol-7-yl}-7-(4,4-difluorocyclohexyl)-5-methyl-4-oxo-3H,4H-pyrido[2,3-d]pyrimidin-2-yl]-2-(3,5-difluorophenyl)ethyl]-2-[(2S,4S)-9-cyclopropyl-7,8-diazatricyclo[4.3.0.0^2,^4]nona-1(6),8-dien-7-yl]acetamide] | 0.006 | > 50 |
